Here are results for six compounds from ChEMBL document CHEMBL1133396, “Construction of HIV Rev peptides containing peptide nucleic acid that bind HIV RRE IIB RNA” (Bioorg Med Chem Lett, 2000).

Peptide text beside a SMILES is read from it.

For orientation: Kd means the constant that tells how readily two partners part at equilibrium. Higher therefore signals a looser complex.

For this assay, the target named is Nucleic Acid. Put plainly: Dissociation constant against stem loop IIB region of RRE-response element RNA was reported. It is filed as nucleic-acid assay, Human immunodeficiency virus 1.
`C[C@H](NC(=O)[C@H](CCC(N)=O)NC(=O)[C@H](CCCNC(=N)N)NC(=O)[C@@H](NC(=O)CCC(=O)O)[C@@H](C)O)C(=O)N[C@@H](CCCNC(=N)N)C(=O)N[C@@H](CCCNC(=N)N)C(=O)N[C@@H](CC(N)=O)C(=O)N[C@@H](CCCNC(=N)N)C(=O)N[C@@H](CCCNC(=N)N)C(=O)N[C@@H](CCCNC(=N)N)C(=O)N[C@@H](CCCNC(=N)N)C(=O)N[C@@H](Cc1c[nH]c2ccccc12)C(=O)N[C@@H](CCCNC(=N)N)C(=O)N[C@@H](CCC(=O)O)C(=O)N[C@@H](CCCNC(=N)N)C(=O)N[C@@H](CCC(N)=O)C(=O)N[C@@H](CCCNC(=N)N)C(=O)NCC(N)=O` (HELM PEPTIDE1{[O=C(O)CCC(=O)[*:2]].T.R.Q.A.R.R.N.R.R.R.R.W.R.E.R.Q.R.G.[am]}$$$$V2.0) returned a Kd of 8 nM.
Then `C[C@H](NC(=O)[C@H](CCC(N)=O)NC(=O)[C@H](CCCNC(=N)N)NC(=O)[C@@H](NC(=O)CCC(=O)O)[C@@H](C)O)C(=O)N[C@@H](CCCNC(=N)N)C(=O)N[C@@H](CCCNC(=N)N)C(=O)N[C@@H](CC(N)=O)C(=O)N[C@@H](CCCNC(=N)N)C(=O)N[C@@H](CCCNC(=N)N)C(=O)N[C@@H](CCCNC(=N)N)C(=O)N[C@@H](CCCNC(=N)N)C(=O)N[C@@H](Cc1c[nH]c2ccccc12)C(=O)N[C@@H](CCCNC(=N)N)C(=O)N[C@@H](CCC(=O)O)C(=O)N[C@@H](CCCNC(=N)N)C(=O)N[C@@H](CCC(N)=O)C(=O)NCC(=O)NCC(N)=O` (HELM PEPTIDE1{[O=C(O)CCC(=O)[*:2]].T.R.Q.A.R.R.N.R.R.R.R.W.R.E.R.Q.G.G.[am]}$$$$V2.0), with 42 nM; and `C[C@H](NC(=O)[C@H](CCC(N)=O)NC(=O)[C@H](CCCNC(=N)N)NC(=O)[C@@H](NC(=O)CCC(=O)O)[C@@H](C)O)C(=O)N[C@@H](CCCNC(=N)N)C(=O)N[C@@H](CCCNC(=N)N)C(=O)N[C@@H](CC(N)=O)C(=O)N[C@@H](CCCNC(=N)N)C(=O)N[C@@H](CCCNC(=N)N)C(=O)N[C@@H](CCCNC(=N)N)C(=O)N[C@@H](CCCNC(=N)N)C(=O)N[C@@H](Cc1c[nH]c2ccccc12)C(=O)N[C@@H](CCCNC(=N)N)C(=O)N[C@@H](CCC(=O)O)C(=O)N[C@@H](CCCNC(=N)N)C(=O)N[C@@H](CCC(N)=O)C(=O)NCCN(CC(N)=O)C(=O)Cn1cnc2c(N)ncnc21` (HELM PEPTIDE1{[O=C(O)CCC(=O)[*:2]].T.R.Q.A.R.R.N.R.R.R.R.W.R.E.R.Q.[NC(=O)CN(CCN[*:1])C(=O)Cn1cnc2c(N)ncnc21]}$$$$V2.0), with 10 nM; and `C[C@H](NC(=O)[C@H](CCC(N)=O)NC(=O)[C@H](CCCNC(=N)N)NC(=O)[C@@H](NC(=O)CCC(=O)O)[C@@H](C)O)C(=O)N[C@@H](CCCNC(=N)N)C(=O)N[C@@H](CCCNC(=N)N)C(=O)N[C@@H](CC(N)=O)C(=O)N[C@@H](CCCNC(=N)N)C(=O)N[C@@H](CCCNC(=N)N)C(=O)N[C@@H](CCCNC(=N)N)C(=O)NCCN(CC(=O)N[C@@H](Cc1c[nH]c2ccccc12)C(=O)N[C@@H](CCCNC(=N)N)C(=O)N[C@@H](CCC(=O)O)C(=O)N[C@@H](CCCNC(=N)N)C(=O)N[C@@H](CCC(N)=O)C(=O)N[C@@H](CCCNC(=N)N)C(N)=O)C(=O)Cn1ccc(N)nc1=O`, with 240 nM.
The compound `C[C@H](NC(=O)[C@H](CCC(N)=O)NC(=O)[C@H](CCCNC(=N)N)NC(=O)[C@@H](NC(=O)CCC(=O)O)[C@@H](C)O)C(=O)N[C@@H](CCCNC(=N)N)C(=O)NCCN(CC(=O)N[C@@H](CC(N)=O)C(=O)N[C@@H](CCCNC(=N)N)C(=O)N[C@@H](CCCNC(=N)N)C(=O)N[C@@H](CCCNC(=N)N)C(=O)N[C@@H](CCCNC(=N)N)C(=O)N[C@@H](Cc1c[nH]c2ccccc12)C(=O)N[C@@H](CCCNC(=N)N)C(=O)N[C@@H](CCC(=O)O)C(=O)N[C@@H](CCCNC(=N)N)C(=O)N[C@@H](CCC(N)=O)C(=O)N[C@@H](CCCNC(=N)N)C(N)=O)C(=O)Cn1ccc(N)nc1=O` returned a Kd of 420 nM.
`C[C@H](NC(=O)[C@H](CCC(N)=O)NC(=O)[C@H](CCCNC(=N)N)NC(=O)[C@@H](NC(=O)CCC(=O)O)[C@@H](C)O)C(=O)N[C@@H](CCCNC(=N)N)C(=O)N[C@@H](CCCNC(=N)N)C(=O)N[C@@H](CC(N)=O)C(=O)N[C@@H](CCCNC(=N)N)C(=O)N[C@@H](CCCNC(=N)N)C(=O)N[C@@H](CCCNC(=N)N)C(=O)N[C@@H](CCCNC(=N)N)C(=O)N[C@@H](Cc1c[nH]c2ccccc12)C(=O)N[C@@H](CCCNC(=N)N)C(=O)N[C@@H](CCC(=O)O)C(=O)N[C@@H](CCCNC(=N)N)C(=O)N[C@@H](CCC(N)=O)C(=O)NCCN(CC(N)=O)C(=O)Cn1ccc(N)nc1=O` (HELM PEPTIDE1{[O=C(O)CCC(=O)[*:2]].T.R.Q.A.R.R.N.R.R.R.R.W.R.E.R.Q.[NC(=O)CN(CCN[*:1])C(=O)Cn1ccc(N)nc1=O]}$$$$V2.0) returned a Kd of 21 nM.
